This is an account of results in patent US12195427B2, “MASP-2 inhibitors and methods of use” (priority 2018, dated 2025).

One experiment has as its system Lectin Pathway. The experiment in a line: Lectin Pathway Activation Assay in Human Serum (mannan-coated ELISA, C3c detection). The experiment is classed as biochemical. As to conditions: 1% human serum. How it is done:
Microtiter ELISA plate was coated with mannan from Saccharomyces cerevisiae (Sigma-Aldrich, M7504) for overnight at 4° C. in coating buffer [15 mM Na2CO3, 35 mM NaHCO3].

The target of another experiment is MASP-2 CCP2-SP (Homo sapiens (Human), UniProt O00187). The experiment in a line: MASP-2 co-crystallization, X-ray crystallography and structure analysis (H-bonds, van der Waals contacts). Details: van der Waals contact distance, MASP-2 HIS 483 atom CD2 / van der Waals contact distance, MASP-2 HIS 483 atom NE2 / van der Waals contact distance, SER 654 C to compound atom / van der Waals contact distance, SER 654 O to compound atom / van der Waals contact distance, TRP 655 C to compound atom / van der Waals contact distance, MASP-2 GLY 528 atom CA / van der Waals contact distance TRP 655 atom CZ3 / van der Waals contact distance TRP 655 atom N / van der Waals contact distance TRP 655 atom CE3 / van der Waals contact distance GLY 656 atom C / van der Waals contact distance GLY 656 atom CA / van der Waals contact distance GLY 656 atom O / van der Waals contact distance, MASP-2 TYR 607 atom CD1 / van der Waals contact distance, MASP-2 PRO 606 atom O / d(C3,CA1) / d(CA1,N1)2 / d(H4,O1) / d(H4,O2) / d(O1,O2) / d(CA1,O2) / d(CA6,O1) / d(CA6,O2) / d(CA1,C5) / d(O2,H3) / d(N2,C2) / d(CA5,N2) / d(N2,C4) / d(N2,C6) / d(N2,CA3) / d(N2,O3) / d(O4,H2): unit not given beside the values. In short, it runs like this:
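Human MASP-2 CCP2-SP, untagged or 6His-tagged, was expressed in E. coli and crystallized. Crystals were soaked with inhibitor in crystallization solution, flash-cooled in liquid nitrogen, and diffracted with synchrotron X-rays (wavelength 1.0). Structures were solved by molecular replacement from 1Q3X and partially refined.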

For a further experiment, the target named is human α-thrombin (Homo sapiens (Human), UniProt P00734). Put plainly: Enzymatic Assay for Thrombin (Boc-VPR-AMC). The experiment is classed as biochemical.

What is called IC50 is the midpoint of a concentration-inhibition curve. As usually defined, the Ki is a measure of affinity in units of concentration, obtained from inhibition or displacement.

MASP-2 CCP2-SP, sequence (O00187 445-686): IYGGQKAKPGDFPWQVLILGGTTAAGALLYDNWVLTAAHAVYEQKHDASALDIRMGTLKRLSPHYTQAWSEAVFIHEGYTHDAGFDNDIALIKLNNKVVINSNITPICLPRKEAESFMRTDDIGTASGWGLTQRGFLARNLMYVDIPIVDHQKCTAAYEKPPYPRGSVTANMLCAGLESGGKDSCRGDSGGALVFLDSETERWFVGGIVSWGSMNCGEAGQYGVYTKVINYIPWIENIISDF
MASP-2 CCP2-SP, sequence (O00187 364-432 partner): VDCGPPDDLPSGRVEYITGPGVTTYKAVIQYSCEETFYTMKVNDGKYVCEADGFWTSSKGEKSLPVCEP

The molecule `C[C@H](NC(=O)c1cc(-c2ccccc2)c[nH]1)C(=O)NCc1ccc(C(=N)N)cc1` [compound 1030] yielded an IC50 in the experiment on Lectin Pathway of 0.5 to 5 µM. In addition, on MASP-2 CCP2-SP (Table A1 (H-Bonds), GLY 656 N), the “H-bond distance to MASP-2 GLY 656 atom N” value stood at 3.12. For the same molecule, on MASP-2 CCP2-SP (Table A1 (H-Bonds), GLY 656 O), the “H-bond distance to MASP-2 GLY 656 atom O” value amounted to 2.82. The “H-bond distance to MASP-2 SER 628 atom OG” value at MASP-2 CCP2-SP (Table A1 (H-Bonds), SER 628 OG) stood at 3.17. Moreover, the “H-bond distance to MASP-2 SER 654 atom O” value at MASP-2 CCP2-SP (Table A1 (H-Bonds), SER 654 O) amounted to 2.82. Besides, on MASP-2 CCP2-SP (Table A1 (H-Bonds), SER 657 O), the “H-bond distance to MASP-2 SER 657 atom O” value is 2.91. The “van der Waals contact distance, MASP-2 HIS 483 atom CD2” value on MASP-2 CCP2-SP (Table A2-1) turned out to be 3.61. In addition, the “van der Waals contact distance, MASP-2 amino acid atom to compound atom” value at MASP-2 CCP2-SP (Table A2-9 second part, ARG 630, AA atoms N, NE, NH1) worked out at 3.83. Moreover, the “van der Waals contact distance GLY 656 atom C” value on MASP-2 CCP2-SP (Table A2-13, MASP-2 GLY 656 C) was 3.73. Further, the “van der Waals contact distance GLY 656 atom CA” value on MASP-2 CCP2-SP (Table A2-13, MASP-2 GLY 656 CA) is listed as 3.86. For the same molecule, the “van der Waals contact distance TRP 655 atom N” value at MASP-2 CCP2-SP (Table A2-13, MASP-2 TRP 655 N) was determined as 3.81. The “van der Waals contact distance GLY 656 atom N” value on MASP-2 CCP2-SP (Table A2-14, MASP-2 GLY 656 N) is on record as 3.78. For the same molecule, the “van der Waals contact distance SER 657 atom C” value at MASP-2 CCP2-SP (Table A2-14, MASP-2 SER 657 C, columns c12-c13 (inferred)) is 3.82.

Regarding `Cc1ccc(-c2c[nH]c(C(=O)N[C@@H](C)C(=O)NCc3ccc(C(=N)N)cc3)c2)cc1F` [compound 1235, (S)—N-(1-((4-Carbamimidoylbenzyl)amino)-1-oxopropan-2-yl)-4-(3-fluoro-4-methylphenyl)-1H-pyrrole-2-carboxamide], at human α-thrombin, the Ki lay within 10 to 25 µM.
